Test results from US20240076327A1 (priority 2020, published 2024).
Where a SMILES comes first, the peptide text is derived from it. Bridges are numbered along the chain shown (N, C = ends). Where no end group is shown, it is not given here.

Experiments:
[1] = buffer, 0 h, pH 9
physchem = details: buffer, pH 9

Compound	observed overall stability (percentage of remaining parent peak) [1] [%]	remaining at 24 h (physchem) [%]	remaining at 48 h (physchem) [%]	remaining at 72 h (physchem) [%]	remaining at 96 h (physchem) [%]	remaining at 120 h (physchem) [%]	remaining at 144 h (physchem) [%]	remaining at 168 h (physchem) [%]	remaining at 360 h (physchem) [%]
CC[C@H](C)[C@H](NC(=O)[C@H](C)N)C(=O)N[C@H]1CSSC[C@@H]2NC(=O)[C@@H]3CSSC[C@@H](C(=O)N[C@@H](CCCNC(=N)N)C(=O)N[C@@H](CCCCN)C(=O)N[C@@H](CC(=O)O)C(=O)N[C@@H](CCC(=O)O)C(=O)N4CCC[C@H]4C(=O)O)NC(=O)[C@H](Cc4ccc(O)cc4)NC(=O)[C@H](CO)NC(=O)[C@H](C(C)C)NC(=O)CNC(=O)[C@H](CC(N)=O)NC(=O)[C@H](CO)NC(=O)[C@H](CCC(=O)O)NC(=O)[C@H](C)NC(=O)[C@H](CCCCN)NC(=O)[C@H](CSSC[C@H](NC(=O)[C@@H]4CCCN4C(=O)[C@H](CCCNC(=N)N)NC(=O)[C@H](CC(=O)O)NC(=O)[C@H](C)NC(=O)CNC(=O)[C@H]([C@@H](C)O)NC1=O)C(=O)N[C@@H](C)C(=O)N[C@@H](C)C(=O)N[C@H]1CSSC[C@H](NC1=O)C(=O)N1CCC[C@H]1C(=O)N3)NC(=O)[C@H](CO)NC(=O)[C@H]([C@@H](C)O)NC(=O)CNC(=O)[C@@H]1CCCN1C2=O [κ-hexatoxin-Hv1c] (H-AICTGADRPCAACCPCCPGTSCKAESNGVSYCRKDEP-OH; disulfide 3-17, 10-22, 13-14, 16-32)	100	91	80	75	61	51	41	30	9
GSQYCVPVDQPCSLNTQPCCDDATCTQERNENGHTVYYCRA (disulfide 5-20, 12-25, 19-39) [GS-ω/κ-hexatoxin-Hv1h]	100	94	91	82	83	83	81	69	50
